Test results reported in ChEMBL document CHEMBL3045215, “Synthesis and insecticidal activity of 3,4-dihydropyrimidine-2(1H)-thiones against the pulse beetle, Callosobruchus chinensis” (2011).

Key:
Callosobruchus chinensis [1] = assay: Insecticidal activity against Callosobruchus chinensis adults reared on green gram assessed as insect mortality at 1000 mg/L after 24 hr; assay type: functional
Callosobruchus chinensis [2] = assay: Insecticidal activity against Callosobruchus chinensis adults reared on green gram assessed as insect mortality after 24 hr; assay type: functional

Row | SMILES | mortality at 1000 µg/mL (Callosobruchus chinensis [1]) | LC50 (Callosobruchus chinensis [2])
1 | Fc1ccc(C2C=C(c3ccc(Cl)cc3)NC(=S)N2)cc1 (configuration not stated) | 75% | 0.00461 mg/cm2
2 | S=C1NC(c2ccccc2)=CC(c2ccccc2Cl)N1 (configuration not stated) | 78% | 0.00201 mg/cm2
3 | S=C1NC(c2ccccc2)=CC(c2ccc(Cl)cc2)N1 (configuration not stated) | 90% | 0.00289 mg/cm2
4 | COc1ccc(C2C=C(c3ccc(C)cc3)NC(=S)N2)cc1 (configuration not stated) | 80% | 
5 | SC1=NC(c2ccccc2)=CC(c2ccccc2)N1 (configuration not stated) | 75% | 0.00795 mg/cm2
6 | COc1ccc(C2=CC(c3ccccc3Cl)NC(=S)N2)cc1 (configuration not stated) | 68% | 
7 | S=C1NC(c2ccc(Cl)cc2)=CC(c2ccccc2)N1 (configuration not stated) | 78% | 0.00556 mg/cm2
8 | COc1ccc(C2=CC(c3ccc(F)cc3)NC(=S)N2)cc1 (configuration not stated) | 86% | 0.00304 mg/cm2
9 | S=C1NC(c2ccc(Cl)cc2)=CC(c2ccc(Cl)cc2)N1 (configuration not stated) | 69% | 
10 | S=C1NC(c2ccc(Cl)cc2)=CC(c2ccccc2Cl)N1 (configuration not stated) | 85% | 0.00524 mg/cm2
11 | Cc1ccc(C2=CC(c3ccccc3Cl)NC(=S)N2)cc1 (configuration not stated) | 87% | 0.00122 mg/cm2
12 | Cc1ccc(C2=CC(c3ccc(F)cc3)NC(=S)N2)cc1 (configuration not stated) | 68% | 
13 | COc1ccc(C2C=C(c3ccc(Cl)cc3)NC(=S)N2)cc1 (configuration not stated) | 40% | 
14 | Cc1ccc(C2=CC(c3ccc(Cl)cc3)NC(=S)N2)cc1 (configuration not stated) | 93% | 0.01227 mg/cm2
15 | COc1ccc(C2C=C(c3ccccc3)NC(=S)N2)cc1 (configuration not stated) | 60% | 0.00164 mg/cm2
16 | COP(=O)(OC)OC=C(Cl)Cl [DICHLORVOS] |  | 0.00243 mg/cm2
17 | COc1ccc(C2=CC(c3ccc(OC)cc3)NC(=S)N2)cc1 (configuration not stated) | 70% | 
18 | Fc1ccc(C2C=C(c3ccccc3)NC(=S)N2)cc1 (configuration not stated) | 60% | 
19 | COc1ccc(C2=CC(c3ccccc3)NC(=S)N2)cc1 (configuration not stated) | 68% | 
20 | Cc1ccc(C2=CC(c3ccccc3)NC(=S)N2)cc1 (configuration not stated) | 66% | 
21 | COc1ccc(C2=CC(c3ccc(Cl)cc3)NC(=S)N2)cc1 (configuration not stated) | 82% | 0.00175 mg/cm2
